{"source": "patent US12629384B2", "about": "“Use of 8,9-dihydrocannabidiol compounds” (The Regents of the University of California, priority 2019, dated 2026)", "key": {"[1]": {"system": "PTZ-induced generalised seizures", "test": "acute PTZ-induced generalised seizures in rat (antiseizure study)", "assay_type": "in vivo", "conditions": "for maximum seizure severity, median (IQR) / percentage of animals that exhibited tonic-clonic seizures: 200 mg kg^-1 i.p. 1 h before PTZ 85 mg kg^-1; for maximum seizure severity, median (IQR): vehicle median 5, P<0.001 vs vehicle; for percentage of animals that exhibited tonic-clonic seizures: vs vehicle treated group, P<0.05", "experimental": "Animals: Male, Wistar Han rats (70-110 g; Harlan, Bicester, UK) were housed on a 12 h light-dark cycle, with food and water available ad libitum. All experiments were conducted in accordance with the UK Animals (Scientific Procedures) Act, 1986 and ARRIVE guidelines for reporting experiments involving animals; 60 rats were used in total.\nDrug administration: Animals were randomly divided into 5 groups of 12 animals per group and received either vehicle (ethanol, Cremophor EL and saline (0.9% w/v NaCl), 2:1:17), a positive control (cannabidiol; CBD; 200 mg kg^−1; Sigma-Aldrich, UK) or 8,9-dihydrocannabidiol (H2CBD; 50, 100 or 200 mg kg^−1) via i.p. injection 1 h prior to administration of the convulsant agent to achieve brain cannabinoid Tmax. The convulsant agent pentylenetetrazole (PTZ; 85 mg kg^−1 in 0.9% w/v NaCl) was administered i.p. 1 h after drug or vehicle treatment. Seizure activity was video recorded for 30 min and video records blinded before offline review and coding using a modified Racine scale (0, normal behaviour; 0.5, abnormal behaviour; 1, isolated myoclonic jerk; 2, atypical clonic seizure; 3, bilateral forelimb clonus; 3.5, bilateral forelimb clonus with body twist; 4, tonic-clonic seizure with suppressed tonic phase; 5, fully developed tonic-clonic seizure).\n(§1) Statistics: Statistical procedures were performed using GraphPad Prism 7 (GraphPad Software, Inc., San Diego, CA, USA).\nIn the present study, 60 male, Wistar Han rats were randomly divided into 5 groups of 12 animals each and received either vehicle (ethanol, Cremophor EL, 0.9% w/v saline; 2:1:17), vehicle plus a positive control (CBD; 200 mg kg^−1), or vehicle plus H2CBD (50, 100, or 200 mg kg^−1) via intraperitoneal injection one hour prior to administration of the convulsant agent pentylenetetrazole (PTZ; 85 mg kg^−1 in 0.9% w/v saline)."}, "[2]": {"test": "blood and brain concentrations post-mortem by HPLC", "assay_type": "in vivo, rat", "conditions": "samples 90 minutes after administration", "experimental": "Assessment of bioanalytes: Chemicals and reagents. 4,4-Dichlorodiphenyltrichloroethane (DDT, CAS: 50-29-3) was used as the internal analytical standard (IS). HPLC grade n-hexane, acetonitrile, water and ascorbic acid were purchased from Sigma Aldrich (UK) and Fisher Scientific.\nAnalysis of plasma and brain samples: Stock standard solutions of CBD, H2CBD and DDT were prepared in acetonitrile (5 mg/ml and 1 mg/mL) and stored at −20° C. until use. These were further diluted in acetonitrile:water (62:38), to achieve calibration concentrations of 0.1, 0.2, 0.5, 1.5, 10 μg/mL. Plasma samples were prepared for HPLC using a previously validated method. Briefly, DDT ([…]) was added to 150 μL of rat plasma sample as internal standard and plasma proteins were precipitated by the addition of 600 μL of ice cold acetonitrile followed by water (600 μL), with 1 min vortexing between additions. n-Hexane (3 mL) was added to each tube and following a 5 min vortex, tubes were centrifuged at 1160×g for 15 min at 10° C. and the upper organic layer was carefully decanted by glass pipette and retained. The organic layer was evaporated to dryness under a stream of nitrogen at room temperature and reconstituted in 150 μL of the mixture of acetonitrile and water (62:38) prior to HPLC analysis.\nFor brain analysis, brains were weighed and 1.5× ice-cold solvent (90% acetonitrile; 10% water; 0.1% ascorbic acid) (w/v) was added followed by homogenization for 1 min. DDT (50 μg/ml) was added to each homogenized brain tissue as internal standard, samples were mixed and allowed to equilibrate overnight at −20° C. Samples were then centrifuged at 3500 rpm for 15 min and the top layer retained. Samples were dried by SpeedVac concentrator at room temperature (Savant SPD131DDA, ThermoFisher Scientific, UK) and reconstituted in 150 μL of the mixture of acetonitrile and water (62:38) for HPLC analysis.\nHPLC analysis: An Agilent 1200 series HPLC (Hewlett-Packard, Palo Alto, CA, USA) equipped with a photodiode array detector was used for analysis. 30 μl of all samples were injected and separation was achieved using an ACE C18-PFP 150 mm×4.6 mm, 3 μm particle size column (Hichrom Ltd., Reading, UK), protected by an ACE C18-PFP […] guard cartridge. The mobile phase was a mixture of acetonitrile and water in a ratio of 62:38 (v/v). The flow rate was set at 1 mL/min and column temperature was maintained at 55° C. The absorbance of all compounds of interest (CBD and DH-CBD) was monitored at 220 nm.\nas §1"}, "rodent behavior [3]": {"system": "rodent behavior", "test": "EPM test", "assay_type": "in vivo, rat", "conditions": "200 mg kg^-1 i.p., 45 minutes post injection; drug vs vehicle; p=0.49", "experimental": "(§2) 12 adult male Sprague Dawley rats were divided at random into two groups of 6 animals each and received either vehicle (Kolliphor RH-40, dmso, 0.9% w/v saline, 1:2:7) or vehicle plus H2CBD (200 mg kg^−1), administered by intraperitoneal injection. The vehicle differed in this case from the anti-seizure study to avoid the potentially confounding effect of alcohol. The number of animals was also limited to the lowest population necessary to establish an effect at the maximum dosage of drug. At 45 minutes post vehicle and drug injections, rats were placed in the center of the EPM and time spent on the open versus closed arms of the maze was recorded. After an interval of two weeks, the same 12 rats were again divided at random into two groups of 6 animals each and dosed as above. Spontaneous locomotor activity was measured 45 minutes after injection by placing the animals in the center of a 16″×16″ arena. Free movement was allowed for 30 minutes and recorded using an automated activity monitoring system."}, "rodent behavior [4]": {"system": "rodent behavior", "test": "open field test, spontaneous locomotor activity", "assay_type": "in vivo, rat", "experimental": "as §2"}, "cytochrome P450": {"system": "cytochrome P450", "conditions": "hepatic microsomal metabolism; consistent with CBD; cited from earlier work"}, "murine macrophages": {"system": "murine macrophages", "conditions": "consistent with CBD; cited from earlier work"}, "[5]": {"conditions": "in contrast to CBD; cited from earlier work"}, "[6]": {"conditions": "simulated gastric fluid, within one hour; cited from earlier work"}}}
{"smiles": "CCCCCc1cc(O)c([C@@H]2C=C(C)CC[C@H]2C(C)C)c(O)c1", "note": "(relative stereo) [Example H2CBD, 2-(6-Isopropyl-3-methylcyclohex-2-en-1-yl)-5-pentylbenzene-1,3-diol]", "values": [{"measurement": "maximum seizure severity, median (IQR)", "setting": "[1]", "result": "2 (0.25-4.25 IQR) Racine scale"}, {"measurement": "percentage of animals that exhibited tonic-clonic seizures", "setting": "[1]", "result": "significantly fewer animals"}, {"measurement": "anticonvulsant action", "setting": "[1]; 50, 100, 200 mg kg^-1 i.p., maximal protective effect comparable to matching dose of CBD", "result": "dose-dependent anticonvulsant action"}, {"measurement": "blood concentration vs vehicle treated group", "setting": "[2]; 100 mg/kg i.p., P<0.05", "result": "significant concentrations"}, {"measurement": "blood concentration vs vehicle treated group", "setting": "[2]; 200 mg/kg i.p., P<0.01", "result": "significant concentrations"}, {"measurement": "brain tissue concentration vs vehicle treated group", "setting": "[2]; 200 mg/kg i.p., P<0.01", "result": "significant concentrations"}, {"measurement": "percent time spent on the open arms", "setting": "rodent behavior [3]", "result": "No statistically significant differences"}, {"measurement": "horizontal distance traveled", "setting": "rodent behavior [4]; 200 mg kg^-1 i.p., 30 min from 45 minutes after injection, drug vs vehicle, P=0.95", "result": "no statistically significant differences"}, {"measurement": "time in the arena center", "setting": "rodent behavior [4]; 200 mg kg^-1 i.p., 30 min from 45 minutes after injection, drug vs vehicle, p=0.14", "result": "no statistically significant differences"}, {"measurement": "vertical activity", "setting": "rodent behavior [4]; 200 mg kg^-1 i.p., 30 min from 45 minutes after injection, drug vs vehicle, p=0.25", "result": "no statistically significant differences"}, {"measurement": "behavioral effects (EPM and open field overall)", "setting": "rodent behavior [4]; high dosage, 200 mg kg^-1", "result": "no measurable behavioral effects"}, {"measurement": "effect on cytochrome P450", "setting": "cytochrome P450", "result": "inhibitory effect"}, {"measurement": "antioxidant activity", "setting": "murine macrophages", "result": "antioxidant activity"}, {"measurement": "sedative activity", "setting": "[5]", "result": "little if any evidence of sedative activity"}]}
{"smiles": "C=C(C)[C@@H]1CCC(C)=C[C@H]1c1c(O)cc(CCCCC)cc1O", "note": "[CBD, cannabidiol]", "values": [{"measurement": "maximum seizure severity, median (IQR)", "setting": "[1]", "result": "2 (0.25-3.75 IQR) Racine scale"}, {"measurement": "percentage of animals that exhibited tonic-clonic seizures", "setting": "[1]", "result": "significantly fewer animals"}, {"measurement": "brain tissue concentration vs vehicle treated group", "setting": "[2]; 200 mg/kg i.p., P<0.01", "result": "significant concentrations"}, {"measurement": "degradation mainly to Δ8- and Δ9-THCs", "setting": "[6]", "result": "nearly complete degradation"}]}
